How the values were obtained:
[1] = test system: IL-6 trans-signaling dependent secretion of MCP-1 in HUVECs; assay: HUVEC trans-signaling assay, MCP-1 production; assay type: cell-based, human; settings: fusions with ABD variant PP013, in the presence of HSA
Method: To address the trans-signaling pathway, a second assay was used. Herein, human umbilical vein endothelial cells (HUVECs) were stimulated with hIL-6 and soluble hIL-6Rα and the readout was the production of monocyte chemoattractant protein-1 (MCP-1). HUVECs (Lonza) were grown in EGM-2 bullet kit media (Lonza) and passaged in culture no more than eight times. Cells were grown until 75% confluence before use. Cells were detached using trypsin/EDTA (Lonza), resuspended and washed once in fresh medium. Next, cells were counted and dispensed into 96 well flat bottom plates at a density of 2×10^4 cells per well. Cells were cultured overnight at 37° C. in a humidified 5% CO2 atmosphere. […] The pre-mixed solutions with the test molecules and hIL-6/hIL-6Rα were then transferred to wells containing HUVECs, which were incubated for 24 h at 37° C. in a humidified 5% CO2 atmosphere. Cell free supernatant was collected after the incubation period and human MCP-1 levels were determined by sandwich ELISA using the MCP-1 Duoset ELISA development system (R&D Systems).
Half area 96-well ELISA plates were coated with anti-MCP-1 capture antibody (R&D Systems) at a concentration of 1 μg/ml. Plates were incubated overnight at 4° C., washed twice in tap water and blocked for 1 h in PBSC. […] The absorbance was measured at 450 nm using a microplate reader (Victor^3, Perkin Elmer).

[2] = test system: IL-6 triggered serum amyloid-A (SAA) protein release; assay: Serum Amyloid A (SAA) mouse model; assay type: in vivo; settings: 25 mg/kg s.c. 9 h before hIL-6 5 μg/kg i.p.; Balb/c mice
Method: The IL-6 targeting Z variant Z06814 (SEQ ID NO:1512) and a control Z variant Z04726 (SEQ ID NO:1535) binding an irrelevant target, were cloned and produced in fusion with the ABD variant PP013 (SEQ ID NO:1554) as described in Example 2. Four groups of Balb/c mice (n=8) were injected subcutaneously (s.c.) with various doses (0, 0.025, 2.5 or 25 mg/kg body weight) of Z06814-ABD 9 h prior to intraperitoneal (i.p.) administration of hIL-6 at 5 μg/kg (R&D Systems). A fifth group of mice (n=8) received 25 mg/kg of Z04726-ABD. Two additional control groups of mice received PBS (n=4) and 25 mg/kg of Z06814-ABD (n=8), respectively, but no subsequent IL-6 injection. After 20 h, the blood was taken by cardiac puncture and serum was collected.
Serum was assessed for the content of murine SAA by ELISA (Tridelta) according to the manufacturer's instructions. In brief, diluted serum samples were added to SAA-precoated plates together with anti-SAA-HRP. The plates were incubated for 1 h and then washed four times. TMB substrate was added for 20 min and the reaction was stopped with stop solution. The absorbance was measured at 450 nm using a microplate reader (Victor^3, Perkin Elmer).

Row | Substance | inhibition of IL-6 mediated trans-signaling in HUVECs [1] | SAA protein levels in serum [2] [µg/mL]
1 | Z03638: control Z variant binding an irrelevant target, tested in fusion with ABD variant PP013 [reference compound] | did not | –
2 | Z04726-ABD: control Z variant Z04726 (SEQ ID NO:1553) binding an irrelevant target, in fusion with ABD variant PP013 [reference compound] | – | 500 to 600
